Test system: Normal male Sprague Dawley rats
Assay: Effect of liraglutide on alcohol consumption (two-bottle choice: water vs 10% alcoholic drink)
Type: in vivo, rat
Description: Certain strains of rats are alcohol dependent and consume large amounts of alcohol if given the choice.
Normal male Sprague Dawley rats were housed individually and fed normal rat chow. Each rat had access to two drinking bottles, one of them containing water and one of them containing a 10% alcoholic drink (diluted Toffee liquor from ALDI®). The rats were acclimatised to the alcoholic drink for a least one week. Consumption of water and the alcoholic drink were continuously recorded on line using the BIOdaq food and water intake monitoring system http://www.bodaq.com/®.
Basal water and alcoholic drink consumption was recorded on a 24 h daily basis. After this had stabilised, consumption of water and alcoholic drink was recorded over a 24 h period. […] Water and alcohol consumption were recorded for 24 h after injection.

Liraglutide (HAEGTFTSDVSSYLEGQAAKEFIAWLVRGRG; chains of the INN, looked up)
Accumulated fluid intake over 24 h, alcohol (10% alcoholic drink), after Liraglutide (Mean ± SEM) (30 μg/kg liraglutide s.c., single dose, 24 h after injection, n=8, same group before dosing 25.6 ± 0.6 g, p < 0.001, paired t-test): 16.1 ± 1.3 g | Effect on 24 h intake of alcoholic drink and water (in words) (30 μg/kg liraglutide s.c., before vs after administration): significantly and selectively reduced intake of alcoholic drink and not water | Alcohol intake compared with vehicle treated rats (in words) (rats offered to choose between alcohol and water): significantly reduces the alcohol intake

From US20150038417A1, “GLP-1 Agonists” (Novo Nordisk A/S, priority 2011, published 2015)
